The values that follow come from US7718784B2, “Switchable nucleic acids for diagnostics, screening and molecular electronics” (priority 2003, dated 2010).

For data set [1], the target named is NCp7 (Human immunodeficiency virus type 1 group M subtype B, UniProt P12493). As to conditions: for difference in fluorescence intensity (factor): DNA analogs of the two extreme states H and O.
Source text: This switch has fluorescent labels, * (e.g., FAM, 6-carboxy-fluorescein), at the 5′-end of the chain and Q (a quencher, e.g., dabcyl) near the 3′-end of the DNA segment (light font). […] In the O species, * and Q are within the Förster distance for efficient quenching. However, they are far apart in the extended hairpin form, H, and the switch emits strongly.
By altering the DNA sequence, K1 is adjusted between 0.1-0.01 (K1=[O]/[H]). […] Upon addition of NCp7 (P), the K1 equilibrium shifts to the right, and the fluorescence signal decreases. The switch is set to a null signal in the presence of a slight excess of P, and is triggered to emit when a competitor, C, sequesters the protein in the P.C complex. […] Knowledge of K1, K2, and the input concentrations, Ot, Pt, and Ct will allow estimation of K3.
This allows the equilibrium shift upon changing the sequence, or adding NCp7, to be monitored very easily. Simply put, the fluorescence of pure H and O are known, so their populations in a mixed system will be just a linear function of the measured fluorescence.
Data set [2] deals with proviral DNA synthesis. As to conditions: cited from earlier work.
Data set [3] deals with NC. The note with it: cited from earlier work.

[dabcylT] = deoxythymidine carrying a dabcyl quencher; {FAM} = fluorescein (FAM) label; d = 2'-deoxy (DNA); r = 2'-OH (RNA)

For the substance “FAM-d(GCATGCCTCCGCATGC(T-dabcyl)CCAACACGC)-UAGCGGUGGCUAGC (DNA GCATGCCTCCGCATGCTCCAACACGCUAGCGGUGGCUAGC; sugars from the 5' end d26 r14, [dabcylT] at 17, 5' {FAM}, backbone and methylation of C not given here) [M2]”, in data set [1], the “fluorescence of switch without and with NCp7” value was “bright in the absence of NCp7 and dark in its presence”; the “difference in fluorescence intensity (factor)” value was found to be 10. As for “FAMd(GCTAGCCACCGCTAGC(T-dabcyl)CCAACACGC)-UAGCGGUGGCUAGC [M1]”, the “difference in fluorescence intensity (factor)” value in data set [1] was 10.

Turning to c(F-C-dW-R-C-K), the In vivo effects entry in data set [2] is given as “suggest impairment of proviral DNA synthesis”. For the same substance, in data set [3], the “competition with NC for in vitro recognition of its RNA, DNA and protein targets” value is given as “competes with NC”. Consider “FAMd(GCTATCCACCGATAGC(T-dabcyl)CCAACACGC)-UAGCGGUGGCUAGC (DNA GCTATCCACCGATAGCTCCAACACGCUAGCGGUGGCUAGC; chemistry not fully specified) [M3]”, for which, in data set [1] (10 nM concentration of the switch), the “equilibration with NCp7” value is on record as “within a minute”.
